From US20120003270A1, “6-SUBSTITUTED ISOFLAVONOID COMPOUNDS AND USES THEREOF” (priority 2008, published 2012)

Key:
prostacyclin (PGI2) = assay: 6-keto PGF1α (prostacyclin) synthesis in IL-1β stimulated HUVECs (RIA); assay type: cell-based, human; details: overnight, mean+SEM, n=3
Description: Cultured human umbilical vein endothelial cells (HUVECs—Vascular Biology Laboratory, Hanson Institute, Adelaide SA) were removed harvested in 0.25% trypsin-EDTA. After quenching and further washing in RPMI-10% FCS, the cells were resuspended in fresh medium at 1-1.5×10^5 cells per ml and plated out in gelatin coated wells at 2 ml per well. After incubation overnight in 5% CO2 at 37° C., the medium was refreshed and the cells returned to the incubator and allowed to equilibrate for approximately 2 h. Test compounds at concentrations of 0, 1, 10 or 100 μM were added to the cells, and 30 minutes later, stimulated by interleukin-1β (IL-1β-10 μl of a 2 ng/ml solution). After overnight incubation at 37° C., supernatants were collected by centrifugation at 2000 rpm for 5 min and stored at −20° C. Production of prostacyclin after overnight incubation was measured by radioimmunoassay (RIA). Because PGI2 is labile in aqueous medium, the stable hydrolysis product 6-keto PGF1α, was measured as a surrogate marker. Results are expressed as mean+SEM, n=3. Differences between means were analysed by one-way ANOVA followed by Tukey's test for multiple comparisons. Differences between means were regarded as significant when p<0.05.

red blood cells (RBC) = assay: Peroxyl radical (AAPH)-induced red blood cell lysis; assay type: cell-based; details: test compounds at 1 μM; AAPH 150 mM; vehicle 40.0
Description: Freshly collected heparinised venous blood (10 ml, on ice) was aliquotted into 1.8 ml sterile eppendorf tubes and centrifuged for 10 minutes at 2600 rpm at 4° C. Plasma and buffy coat layers were removed (approximately 900 μl) and packed red blood cells (RBC) were then washed by the addition of 900 μl of sterile, ice cold PBS. This washing procedure was repeated twice. Packed RBC were resuspended by the addition of 900 μl of ice-cold, sterile PBS (and termed RBC stock). RBC stocks were stored at 4° C. for a maximum of three days. All working suspensions of RBC were prepared fresh daily by diluting 200 μl of RBC stock into 10 ml of ice-cold, sterile PBS and 50 μl added to each well.
Stocks of AAPH were freshly prepared for individual experiments as follows. […] Turbidity of RBC suspensions were monitored using a Tecan microplate reader at 690 nm (37° C.) with gentle vortexing. Assays were performed in quadruplicate and readings were taken every 5 minutes over 5 hours. RBC lysis curves were constructed by plotting absorbance (mean of 4 readings) against time. Time to half-lysis was calculated by taking the highest absorbance reading (no lysis) and the lowest absorbance reading (maximum lysis). The sum of these two readings divided by two gave the absorbance at half-lysis. Simple regression analysis was used to calculate the time at which half-lysis absorbance occurred.

VCAM-1 = assay: TNFα-induced VCAM-1 expression in HAECs (ELISA); assay type: cell-based, human; details: TNFα-stimulated HAECs, 405 nm
Description: Inhibition of TNFα-stimulated endothelial cell activation was assessed by measuring surface expression of cell adhesion molecules with an ELISA method. Human arterial endothelial cells (HAEC) in growth medium (Cell Applications Inc.) were seeded into 96-well plates at a density of 10,000 cells per well. Plates were incubated overnight at 37° C. in a humidified incubator to allow for cells to become confluent. On the morning of the experiment, TNFα (10 μl, 2 ng/ml) was added to each well, which contained 100 μl of medium. Test compounds were diluted in DMSO-containing medium (2.5% DMSO) to give a concentration of 100 and 300 μM. They were added to wells so that final concentrations were 10 and 30 μM. DMSO-containing medium alone was added to zero concentration control wells. All samples were measured in quadruplicate (4 wells per treatment).
After incubation with a compound of the formula (I), the medium was removed and cells were probed with either non-specific IgG or specific mouse antibodies (VCAM (BD Biosciences −0.1 μg in 100 μL buffered saline with 10% heat-inactivated human serum)).
Adhesion molecule expression was detected by addition of sheep anti-mouse antibody/horseradish peroxidase conjugate. Plates were allowed to stand for 30 minutes—monolayers were then washed, and sheep anti-mouse antibody/horseradish peroxidase conjugate (1:500 in 100 μL HBSS with 10% heat-inactivated human serum and 0.05% Tween 20) was added and left for 30 minutes. After further washing, 150 μL, ABTS substrate (Kirkegaard and Perry Laboratories) was added to each well and allowed to develop for 15 minutes. Optical density was measured at 405 nm with an ELISA reader (Titertek Multiscan, Flow Laboratories).

| SMILES | PGF1α (prostacyclin (PGI2); 1 μM) [pg/mL] | PGF1α (prostacyclin (PGI2); 10 μM) [pg/mL] | PGF1α (prostacyclin (PGI2); 100 μM) [pg/mL] | Time taken to reach half-lysis, time (red blood cells (RBC)) [min] | VCAM-1 expression, Absorbance (VCAM-1; 10 μM) | VCAM-1 expression, Absorbance (VCAM-1; 30 μM) | PGF1α (pg/ml) (prostacyclin (PGI2); 10 μM) |
| --- | --- | --- | --- | --- | --- | --- | --- |
| CN(C)Cc1cc2c(cc1O)OCC(c1ccc(O)cc1)=C2 [Compound (1)] | 0.667 ± 0.088 | 0.584 ± 0.059 | 0.277 ± 0.07 | 154.6 | 0.164 ± 0.012 | 0.208 ± 0.008 | – |
| O=C(O)C1CCCN1Cc1cc2c(cc1O)OCC(c1ccc(O)cc1)=C2 (stereo not drawn) [Compound (3)] | 0.353 ± 0.045 | – | 0.308 ± 0.065 | 88.6 | 0.161 ± 0.16 | 0.215 ± 0.018 | 0.335 ± 0.039^ pg/ml |
